Laboratory results as given in US6534534B1, “Pharmaceutical composition active in reducing production of MCP-1 protein” (Aziende Chimiche Riunite Angelini Francesco A.C.R.A.F. …, priority 1997, dated 2003).
Where two headings read alike, the source gives them in different places.

Tests used:
mouse air pouch = details: for Exudate / Leucocytes: bindarit 0.5% in diet for 18 days
Experimental: The action of bindarit was studied in an experimental model in the mouse, the said model being characterized by production of MCP-1, cell infiltration and formation of exudate. Mice were fed ad libitum with a standard diet for rodents or with the same diet with addition of bindarit (0.5%) for 18 days. On the twelfth day, under ether anaesthesia, sterile air (5 ml) was injected under the dorsal skin of the mice to form a sac. On the fifteenth day, again under ether anaesthesia, further sterile air (5 ml) was injected into the pre-formed sac. On the eighteenth day, a sterile physiological solution (1 ml) was injected into the sac thus obtained, or an irritant (1 ml). The said irritant was carrageen (1%) or IL-1 (40 ng). After 5 hours for IL-1, or 24 hours for carrageen, the mice were sacrificed by asphyxia with CO2. The exudate which had developed was collected and used for the leucocyte count and for measurement of the mediators produced.

IL-8 = details: for IL-8: PBMC, LPS 100 ng/ml, 24 hours, supernatant
Experimental: (§1) The capability of bindarit to reduce production of MCP-1 by leucocytes (PBMC) stimulated by LPS was evaluated. White blood cells were isolated by centrifugation on a Ficoll gradient and then stimulated with LPS (100 ng/ml) for 24 hours in the presence or absence of scalar concentrations of bindarit. The supernatant fluid was collected at the end and levels of MCP-1 were measured by means of a specific immunoenzymatic test.

MCP-1 = details: for MCP-1: PBMC, LPS 100 ng/ml, 24 hours, supernatant
Experimental: as §1

[1] = IL-1, share of cells in exudate, bindarit 0.5% in diet

`CC(C)(OCc1nn(Cc2ccccc2)c2ccccc12)C(=O)O` [Bindarit] was tested, and the Exudate (mouse air pouch; IL-1 (40 ng), 5 hours) was 1.00 ± 0.01 mL, the Leucocytes (mouse air pouch; IL-1 (40 ng), 5 hours) was 7.5 ± 2.21 and the Monocytes (mouse air pouch; [1]) was 6%. For the same compound, the Polymorphonucleates (mouse air pouch; [1]) was 94%, the Exudate (mouse air pouch; carrageen (1%), 24 hours) was 0.90 ± 0.08 mL and the Leucocytes (mouse air pouch; carrageen (1%), 24 hours) was 4.5 ± 0.64. The “number of infiltrated cells (leucocytes) (in words)” value (mouse air pouch; summary of Table 2) was “significant reduction”, the “volume of exudate collected (in words)” value (mouse air pouch; summary of Table 2) was “without presenting a reduction” and the “percentage of monocytes attracted in the sac (in words)” value (mouse air pouch; summary of Table 3) was “reduction”. For the same compound, the IL-8 (IL-8; bindarit 25 μg/ml) was 30 ± 5.20 ng/mL, the IL-8 (IL-8; bindarit 50 μg/ml) was 37 ± 5.36 ng/mL and the IL-8 (IL-8; bindarit 100 μg/ml) was 27 ± 5.8 ng/mL. The “levels of IL-8 produced (in words)” value (IL-8; summary of Table 1) was “without substantially influencing”, the MCP-1 (MCP-1; bindarit 25 μg/ml) was 1.5 ± 0.38 ng/mL and the MCP-1 (MCP-1; bindarit 50 μg/ml) was 1.6 ± 0.18 ng/mL. For the same compound, the MCP-1 (MCP-1; bindarit 100 μg/ml) was 0.8 ± 0.04 ng/mL and the “production of MCP-1 induced by LPS (in words)” value (MCP-1; summary of Table 1) was “significantly reduces”.
